For assay [1], the target named is T1, human norepinephrine transporter (Homo sapiens, UniProt P23975).
T1 construct: expressed in transfected cells; host or cells: HEK-293
Kind of assay: hNET Receptor Binding ([125I]-RTI-55 displacement, HEK-293 membranes). Conditions: hNET, HEK-293 cell membranes, 50 pM [125I]-RTI-55, Ki from IC50 by Cheng-Prusoff; read-out: NET Ki. How it is done:
Cell pastes of HEK-293 cells transfected with a human norepinephrine transporter cDNA were prepared. The cell pastes were resuspended in 400 to 700 mL of Krebs-HEPES assay buffer (25 mM HEPES, 122 mM NaCl, 3 mM KCl, 1.2 mM MgSO4, 1.3 mM CaCl2, and 11 mM glucose, pH 7.4) with a Polytron homogenizer at setting 7 for 30 seconds. Aliquots of membranes (5 mg/mL protein) were stored in liquid nitrogen until used.
The binding assay was set up in Beckman deep-well polypropylene plates with a total volume of 250 μL containing: compound of one of the Examples (10^−5M to 10^−12M), cell membranes, and 50 pM [^125I]-RTI-55 (Perkin Elmer, NEX-272; specific activity 2200 Ci/mmol). The reaction was incubated by gentle agitation for 90 minutes at room temperature and was terminated by filtration through Whatman GF/C filter plates using a Brandel 96-well plate harvester. Scintillation fluid (100 μL) was added to each well, and bound [^125I]-RTI-55 was determined using a Wallac Trilux Beta Plate Counter. Test compounds were run in duplicate, and specific binding was defined as the difference between binding in the presence and absence of 10 μM desipramine.
(§1) Excel and GraphPad Prism software were used for data calculation and analysis. IC50 values were converted to Ki values using the Cheng-Prusoff equation.

Assay [2] has as its target T2, human serotonin transporter (Homo sapiens, UniProt P31645).
T2 construct: expressed in transfected cells; host or cells: HEK-293
Kind of assay: hSERT Receptor Binding ([125I]-RTI-55 displacement, HEK-293 membranes). The note with it: hSERT, HEK-293 cell membranes, 50 pM [125I]-RTI-55, Ki from IC50 by Cheng-Prusoff; read-out: SERT Ki. As to the method:
Cell pastes of HEK-293 cells transfected with a human serotonin transporter cDNA were prepared. The cell pastes were resuspended in 400 to 700 mL of Krebs-HEPES assay buffer (25 mM HEPES, 122 mM NaCl, 3 mM KCl, 1.2 mM MgSO4, 1.3 mM CaCl2, and 11 mM glucose, pH 7.4) with a Polytron homogenizer at Setting 7 for 30 seconds. Aliquots of membranes (about 2.5 mg/mL protein) were stored in liquid nitrogen until used.
Assays were set up in FlashPlates pre-coated with 0.1 % PEI in a total volume of 250 μL containing: compound of one of the Examples (10^−5M to 10^−12M), cell membanes, and 50 pM [^125l]-RTI-55 (Perkin Elmer, NEX-272; specific activity 2200 Ci/mmol). The reaction was incubated and gently agitated for 90 minutes at room temperature, and terminated by removal of assay volume. Plates were covered, and bound [^125I]-RTI-55 was determined using a Wallac Trilux Beta Plate Counter. Test compounds were run in duplicate, and specific binding was defined as the difference between binding in the presence and absence of 10 μM citalopram.
as §1

T1 sequence (P23975 whole entry): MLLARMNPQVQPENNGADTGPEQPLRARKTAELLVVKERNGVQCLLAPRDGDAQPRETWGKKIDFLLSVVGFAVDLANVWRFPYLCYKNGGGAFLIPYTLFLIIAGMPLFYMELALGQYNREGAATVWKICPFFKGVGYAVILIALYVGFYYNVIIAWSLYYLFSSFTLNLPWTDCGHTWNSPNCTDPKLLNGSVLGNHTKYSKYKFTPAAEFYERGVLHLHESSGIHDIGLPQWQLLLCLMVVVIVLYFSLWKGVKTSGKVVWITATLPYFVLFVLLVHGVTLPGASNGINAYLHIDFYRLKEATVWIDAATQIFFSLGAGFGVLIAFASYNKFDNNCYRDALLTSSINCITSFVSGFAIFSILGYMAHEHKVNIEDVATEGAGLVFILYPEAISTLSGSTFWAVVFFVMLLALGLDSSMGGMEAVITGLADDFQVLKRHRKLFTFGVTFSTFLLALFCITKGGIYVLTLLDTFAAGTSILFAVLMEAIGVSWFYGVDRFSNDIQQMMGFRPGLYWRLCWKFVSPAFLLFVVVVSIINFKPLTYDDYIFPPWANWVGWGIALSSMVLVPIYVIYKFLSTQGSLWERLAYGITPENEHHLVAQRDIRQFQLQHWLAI
T2 sequence (P31645 whole entry): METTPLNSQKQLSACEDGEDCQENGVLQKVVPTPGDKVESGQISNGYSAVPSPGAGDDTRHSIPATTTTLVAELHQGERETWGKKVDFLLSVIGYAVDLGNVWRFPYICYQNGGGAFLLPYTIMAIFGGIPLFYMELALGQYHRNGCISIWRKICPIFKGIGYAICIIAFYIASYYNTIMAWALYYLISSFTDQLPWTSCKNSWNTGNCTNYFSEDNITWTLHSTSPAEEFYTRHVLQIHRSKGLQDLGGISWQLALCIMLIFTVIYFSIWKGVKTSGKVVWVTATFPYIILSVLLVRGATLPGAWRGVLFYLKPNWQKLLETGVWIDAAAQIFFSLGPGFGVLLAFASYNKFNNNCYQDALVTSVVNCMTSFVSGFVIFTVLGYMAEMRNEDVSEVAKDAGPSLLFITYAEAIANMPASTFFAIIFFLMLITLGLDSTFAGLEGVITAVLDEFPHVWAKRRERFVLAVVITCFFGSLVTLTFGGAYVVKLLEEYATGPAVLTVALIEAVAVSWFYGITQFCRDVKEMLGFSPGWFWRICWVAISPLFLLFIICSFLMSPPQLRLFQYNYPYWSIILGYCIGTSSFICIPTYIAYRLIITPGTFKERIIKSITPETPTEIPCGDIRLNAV

Consider `Cc1ccc(OC[C@@H]2CNCC[C@H]2c2ccccc2)cn1` [Example 22, (3S,4R)-2-Methyl-5-(4-phenyl-piperidin-3-ylmethoxy)-pyridine], for which the inhibitory constant (Ki) (usually the dissociation constant of the complex between target and ligand, obtained from inhibition or displacement) amounted to 263 nM in assay [1] and 3.47 nM in assay [2].
The corresponding values for `COCc1cc(OC[C@@H]2CNCC[C@H]2c2ccccc2)[nH]n1` [Example 23, (3S,4R)-3-(5-Methoxymethyl-2H-pyrazol-3-yloxymethyl)-4-phenyl-piperidine] are 1520 nM and 1390 nM.
The corresponding values for `Cn1nc(OC[C@@H]2CNCC[C@H]2c2ccccc2)cc1C(F)(F)F` [Example 24, (3S,4R)-3-(1-Methyl-5-trifluoromethyl-1 H-pyrazol-3-yloxymethyl)-4-phenyl-piperidine] are 519 nM and 87.7 nM.
Taken in the same sequence, the figures for `N#Cc1cccc(OC[C@@H]2CNCC[C@H]2c2ccccc2)c1` [Example 25, (3S,4R)-3-(4-Phenyl-piperidin-3-ylmethoxy)-benzonitrile] were 107 nM and 2.49 nM.
Regarding `N#Cc1ccc(OC[C@@H]2CNCC[C@H]2c2ccccc2)cc1` [Example 26, (3S,4R)-4-(4-Phenyl-piperidin-3-ylmethoxy)-benzonitrile], the results for the Ki in assay [1] and in assay [2] were 73.3 nM and 21.5 nM, respectively.
Take `CC(C)c1cc(C(N)=O)cc(C(C)C)c1OC[C@@H]1CNCC[C@H]1c1ccccc1` [Example 27, (3S,4R)-3,5-Diisopropyl-4-(4-phenyl-piperidin-3-ylmethoxy)-benzamide]: the Ki in assay [1] is at least 10000 nM; in assay [2], 5230 nM.
The corresponding values for `Cc1nccnc1OC[C@@H]1CNCC[C@H]1c1ccccc1` [Example 28, (3S,4R)-2-Methyl-3-(4-phenyl-piperidin-3-ylmethoxy)-pyrazine] are 6380 nM and 2130 nM.
The corresponding values for `CNC(=O)c1ccc(OC[C@@H]2CNCC[C@H]2c2ccccc2)cc1` [Example 29, (3S,4R)-N-Methyl-4-(4-phenyl-piperidin-3-ylmethoxy)-benzamide] are 309 nM and 967 nM.
The corresponding values for `CNC(=O)c1ccc(OC[C@@H]2CNCC[C@H]2c2ccccc2)c(OC)c1` [Example 30, (3S,4R)-3-Methoxy-N-methyl-4-(4-phenyl-piperidin-3-ylmethoxy)-benzamide] are 534 nM and 333 nM.
For the molecule `COCc1ncccc1OC[C@@H]1CNCC[C@H]1c1ccccc1` [Example 31, (3S,4R)-2-Methoxymethyl-3-(4-phenyl-piperidin-3-ylmethoxy)-pyridine], the Ki in assay [1] came out at 102 nM; in assay [2] it was 890 nM.
Taken in the same sequence, the figures for `CN(C)C(=O)c1ccc(OC[C@@H]2CNCC[C@H]2c2ccccc2)cc1` [Example 32, (3S,4R)-N,N-Dimethyl-4-(4-phenyl-piperidin-3-ylmethoxy)-benzamide] were 2940 nM and 861 nM.
The corresponding values for `NC(=O)c1ccc(OC[C@@H]2CNCC[C@H]2c2ccccc2)c(Cl)c1` [Example 33, (3S,4R)-3—CHloro-4-(4-phenyl-piperidin-3-ylmethoxy)-benzamide] are 8.6 nM and 18.1 nM.
Taken in the same sequence, the figures for `Cc1cc(C(N)=O)cc(C)c1OC[C@@H]1CNCC[C@H]1c1ccccc1` [Example 34, (3S,4R)-3,5-Dimethyl-4-(4-phenyl-piperidin-3-ylmethoxy)-benzamide] were 1440 nM and 3500 nM.
In the case of `COc1cc(C#N)ccc1OC[C@@H]1CNCC[C@H]1c1ccccc1` [Example 36, (3S,4R) 3-Methoxy-4-(4-phenyl-piperidin-3-ylmethoxy)-benzonitrile], the values for the Ki in assay [1] and in assay [2] were 101 nM and 13.7 nM, respectively.
Consider `NC(=O)c1cc(Cl)ccc1OC[C@@H]1CNCC[C@H]1c1ccccc1` [Example 37, (3S,4R)-5—CHloro-2-(4-phenyl-piperidin-3-ylmethoxy)-benzamide], for which the results for the Ki in assay [1] and in assay [2] were 1030 nM and 431 nM, respectively.
Regarding `NC(=O)c1ncccc1OC[C@@H]1CNCC[C@H]1c1ccccc1` [Example 39, (3S,4R)-3-(4-Phenyl-piperidin-3-ylmethoxy)-pyridine-2-carboxylic acid amide], the Ki in assay [1] amounted to 146 nM; in assay [2] it was 732 nM.
Take `CS(=O)(=O)c1ccccc1OC[C@@H]1CNCC[C@H]1c1ccccc1` [Example 40, (−)-(3S,4R)-3-(2-Methanesulfonyl-phenoxymethyl)-4-phenyl-piperidine]: the values for the Ki in assay [1] and in assay [2] were 751 nM and 5680 nM, respectively.
Turning to `COc1cccc(F)c1OC[C@@H]1CNCC[C@H]1c1ccccc1` [Example 41, (3S,4R)-3-(2-Fluoro-6-methoxy-phenoxymethyl)-4-phenyl-piperidine], the Ki in assay [1] turned out to be 3.88 nM; in assay [2], 2.67 nM.
The corresponding values for `N#Cc1ccccc1OC[C@@H]1CNCC[C@H]1c1ccccc1` [Example 42, (3S, 4R)-2-(4-Phenyl-piperidin-3-ylmethoxy)-benzonitrile] are 1.7 nM and 626 nM.
Taken in the same sequence, the figures for `CCOc1cccnc1OC[C@@H]1CNCC[C@H]1c1ccccc1` [Example 43, (3S,4R)-3-Ethoxy-2-(4-phenyl-piperidin-3-ylmethoxy)-pyridine] were 14.4 nM and 89.7 nM.
Taken in the same sequence, the figures for `COc1cccnc1OC[C@@H]1CNCC[C@H]1c1ccccc1` [Example 44, (3S,4R)-3-Methoxy-2-(4-phenyl-piperidin-3-ylmethoxy)-pyridine] were 33.3 nM and 158 nM.
`COc1nccnc1OC[C@@H]1CNCC[C@H]1c1ccccc1` [Example 45, (3S,4R)-2-Methoxy-3-(4-phenyl-piperidin-3-ylmethoxy)-pyrazine]: the values for the Ki in assay [1] and in assay [2] were 36.5 nM and 71.8 nM, respectively.
As for `Cc1cccc(OC[C@@H]2CNCC[C@H]2c2ccccc2)n1` [Example 46, (−)-(3S,4R)-2-Methyl-6-(4-phenyl-piperidin-3-ylmethoxy)-pyridine], the inhibition constant (Ki) in assay [1] is 233 nM; in assay [2] it was 156 nM.

These data come from patent publication US20070142389A1, “PIPERIDINE DERIVATIVES” (PFIZER INC., priority 2005, published 2007).
